From patent US12059393B2, “Compositions for topical treatment of radiation dermatitis” (Akos Biosciences, Inc, priority 2022, dated 2024)

System: acute radiation-induced dermatitis
Experiment: Blinded clinical dermatitis scoring in mouse radiation dermatitis model
Format: in vivo, Balb/c mice
Set-up: key to Dermatitis score (mean): dermatitis scale 0 to 5, 1.0-unit increments
Settings: for Dermatitis score % Change Group 4 vs. Group 3: 30 mg/mL CBD vs olive oil only; for Dermatitis score % Change Group 4 vs. Group 2: 30 mg/mL CBD vs radiation only; for Dermatitis score (mean): Group 4 (30 mg/mL CBD)
Method: A study was performed on mice to determine the efficacy of topically-dosed CBD in an olive oil vehicle for the treatment of acute radiation-induced dermatitis. Three different CBD dosages were used— 30 mg/mL (3 wt %), 120 mg/mL (12 wt %), and 250 mg/mL (25 wt %).
144 female Balb/c mice with an average starting body weight (±SEM) of 17.96±0.12 grams were randomized into six (6) groups of 24 animals each, as follows:
The control group (Group 1) was not irradiated. The animals in Groups 2-6 were anesthetized via a single intraperitoneal injection of xylazine and ketamine prior to being administered a single dose of 30 Grays (Gy) of radiation directed at a 2 cm×4 cm patch of shaved dorsal skin on Day 0. Radiation was generated by a 160 kVp (15-ma) X-ray source at a focal distance of 10 cm, hardened with a 0.35 mm Cu filtration system at a rate of approximately 3.2 Gy/minute.
Dosing for animals in Groups 3-6 began on Day 0 immediately after radiation. Treatments were administered topically (0.1 mL per animal) daily from Days 0-28.
Starting on Day 8 and continuing every other day thereafter (Days 8-28), each animal was evaluated for skin redness and dermatitis, and photographed for subsequent blinded scoring of dermatitis at the completion of the study. Body weight was taken daily.
Dermatitis was measured by blinded scoring of photographs at the end of the study. Two independent observers graded the photographs, and results were reported on a scale of 0 to 5 in 1.0 unit increments. The scale is described in the table below:
Data were evaluated using one-way ANOVA with Dunnett's multiple comparisons test to compare all groups to the vehicle control group using GraphPad Prism 8.4.3 (La Jolla, CA Duration of dermatitis data was evaluated using the Chi-square test to compare all groups to the vehicle-control group and radiation only group using SigmaPlot 11.0 (Systat Software, Inc.). Statistical significance was achieved when p<0.05.
The following table provides information on the duration of moderate dermatitis, which is defined as the number of days on which scores were at least 2
Bold values indicate a decrease (improvement), and underlined values indicate an increase (worsening).

[1] = 30 mg/mL CBD, 148 total animal days
[2] = 120 mg/mL CBD, 148 total animal days
[3] = 150 mg/mL CBD, 147 total animal days

C=C(C)[C@@H]1CCC(C)=C[C@H]1c1c(O)cc(CCCCC)cc1O [CBD, 2-[(1R,6R)-6-Isopropenyl-3-methylcyclohex-2-en-1-yl]-5-pentylbenzene-1,3-diol]
% Days ≥2 (30 mg/mL CBD): 50.68% | Mean dermatitis scores compared against Group 2 (radiation only) and Group 3 (olive oil only) (30 mg/mL CBD (Group 4)): consistently decreased mean dermatitis scores | Percentage of days with moderate dermatitis compared to the Olive oil only group (Group 3) (30 mg/mL CBD (Group 4)): significantly lower | Percentages of animals with moderate or severe dermatitis (30 mg/mL CBD (Group 4), majority of surveyed days, vs olive oil only group): reduced percentages of animals with moderate or severe dermatitis | Dermatitis score % Change Group 4 vs. Group 3 (Day 8): −22.22% | Dermatitis score % Change Group 4 vs. Group 3 (Day 10): −18.75% | Dermatitis score % Change Group 4 vs. Group 3 (Day 12): −21.62% | Dermatitis score % Change Group 4 vs. Group 3 (Day 14): −20.00% | Dermatitis score % Change Group 4 vs. Group 3 (Day 16): −23.33% | Dermatitis score % Change Group 4 vs. Group 3 (Day 18): −34.62% | Dermatitis score % Change Group 4 vs. Group 3 (Day 20): −38.10% | Dermatitis score % Change Group 4 vs. Group 3 (Day 22): −17.65% | Dermatitis score % Change Group 4 vs. Group 3 (Day 24): −23.53% | Dermatitis score % Change Group 4 vs. Group 3 (Day 26): −29.41% | Dermatitis score % Change Group 4 vs. Group 3 (Day 28): −31.25% | Dermatitis score % Change Group 4 vs. Group 2 (Day 8): 101.92% | Dermatitis score % Change Group 4 vs. Group 2 (Day 10): 10.80% | Dermatitis score % Change Group 4 vs. Group 2 (Day 12): −15.04% | Dermatitis score % Change Group 4 vs. Group 2 (Day 14): −8.78% | Dermatitis score % Change Group 4 vs. Group 2 (Day 16): −29.72% | Dermatitis score % Change Group 4 vs. Group 2 (Day 18): −35.07% | Dermatitis score % Change Group 4 vs. Group 2 (Day 20): −43.25% | Dermatitis score % Change Group 4 vs. Group 2 (Day 22): −32.46% | Dermatitis score % Change Group 4 vs. Group 2 (Day 24): −40.42% | Dermatitis score % Change Group 4 vs. Group 2 (Day 26): −42.11% | Dermatitis score % Change Group 4 vs. Group 2 (Day 28): −46.93% | Percentage of Animals with Moderate Dermatitis (≥2) (30 mg/mL CBD, Day 8): 18.8% | Percentage of Animals with Moderate Dermatitis (≥3) (30 mg/mL CBD, Day 8): 0% | Percentage of Animals with Moderate Dermatitis (≥2) (30 mg/mL CBD, Day 10): 75% | Percentage of Animals with Moderate Dermatitis (≥3) (30 mg/mL CBD, Day 10): 6.3% | Percentage of Animals with Moderate Dermatitis (≥2) (30 mg/mL CBD, Day 12): 81.3% | Percentage of Animals with Moderate Dermatitis (≥3) (30 mg/mL CBD, Day 12): 18.8% | Percentage of Animals with Moderate Dermatitis (≥2) (30 mg/mL CBD, Day 14): 75% | Percentage of Animals with Moderate Dermatitis (≥3) (30 mg/mL CBD, Day 14): 56.3% | Percentage of Animals with Moderate Dermatitis (≥2) (30 mg/mL CBD, Day 16): 75% | Percentage of Animals with Moderate Dermatitis (≥3) (30 mg/mL CBD, Day 16): 41.7% | Percentage of Animals with Moderate Dermatitis (≥2) (30 mg/mL CBD, Day 18): 66.7% | Percentage of Animals with Moderate Dermatitis (≥3) (30 mg/mL CBD, Day 18): 0% | Percentage of Animals with Moderate Dermatitis (≥2) (30 mg/mL CBD, Day 20): 33.3% | Percentage of Animals with Moderate Dermatitis (≥3) (30 mg/mL CBD, Day 20): 0% | Percentage of Animals with Moderate Dermatitis (≥2) (30 mg/mL CBD, Day 22): 47.7% | Percentage of Animals with Moderate Dermatitis (≥3) (30 mg/mL CBD, Day 22): 0% | Percentage of Animals with Moderate Dermatitis (≥2) (30 mg/mL CBD, Day 24): 33.3% | Percentage of Animals with Moderate Dermatitis (≥3) (30 mg/mL CBD, Day 24): 0% | Percentage of Animals with Moderate Dermatitis (≥2) (30 mg/mL CBD, Day 26): 25% | Percentage of Animals with Moderate Dermatitis (≥3) (30 mg/mL CBD, Day 26): 0% | Percentage of Animals with Moderate Dermatitis (≥2) (30 mg/mL CBD, Day 28): 16.7% | Percentage of Animals with Moderate Dermatitis (≥3) (30 mg/mL CBD, Day 28): 0% | Days <2 (animal days) [1]: 73 | Days ≥2 (duration of moderate dermatitis, animal days) [1]: 75 | % Days ≥2 (120 mg/mL CBD): 59.46% | Percentage of Animals with Moderate Dermatitis (≥2) (120 mg/mL CBD, Day 8): 18.8% | Percentage of Animals with Moderate Dermatitis (≥3) (120 mg/mL CBD, Day 8): 0% | Percentage of Animals with Moderate Dermatitis (≥2) (120 mg/mL CBD, Day 10): 87.5% | Percentage of Animals with Moderate Dermatitis (≥3) (120 mg/mL CBD, Day 10): 6.3% | Percentage of Animals with Moderate Dermatitis (≥2) (120 mg/mL CBD, Day 12): 93.8% | Percentage of Animals with Moderate Dermatitis (≥3) (120 mg/mL CBD, Day 12): 50% | Percentage of Animals with Moderate Dermatitis (≥2) (120 mg/mL CBD, Day 14): 100% | Percentage of Animals with Moderate Dermatitis (≥3) (120 mg/mL CBD, Day 14): 75% | Percentage of Animals with Moderate Dermatitis (≥2) (120 mg/mL CBD, Day 16): 83.3% | Percentage of Animals with Moderate Dermatitis (≥3) (120 mg/mL CBD, Day 16): 25% | Percentage of Animals with Moderate Dermatitis (≥2) (120 mg/mL CBD, Day 18): 83.3% | Percentage of Animals with Moderate Dermatitis (≥3) (120 mg/mL CBD, Day 18): 8.3% | Percentage of Animals with Moderate Dermatitis (≥2) (120 mg/mL CBD, Day 20): 58.3% | Percentage of Animals with Moderate Dermatitis (≥3) (120 mg/mL CBD, Day 20): 0% | Percentage of Animals with Moderate Dermatitis (≥2) (120 mg/mL CBD, Day 22): 33.3% | Percentage of Animals with Moderate Dermatitis (≥3) (120 mg/mL CBD, Day 22): 0% | Percentage of Animals with Moderate Dermatitis (≥2) (120 mg/mL CBD, Day 24): 33.3% | Percentage of Animals with Moderate Dermatitis (≥3) (120 mg/mL CBD, Day 24): 0% | Percentage of Animals with Moderate Dermatitis (≥2) (120 mg/mL CBD, Day 26): 33.3% | Percentage of Animals with Moderate Dermatitis (≥3) (120 mg/mL CBD, Day 26): 0% | Percentage of Animals with Moderate Dermatitis (≥2) (120 mg/mL CBD, Day 28): 8.3% | Percentage of Animals with Moderate Dermatitis (≥3) (120 mg/mL CBD, Day 28): 0% | Days <2 (animal days) [2]: 60 | Days ≥2 (duration of moderate dermatitis, animal days) [2]: 88 | Days <2 (animal days) [3]: 57 | Days ≥2 (duration of moderate dermatitis, animal days) [3]: 90 | Percentage of Animals with Moderate Dermatitis (≥2) (250 mg/mL CBD, Day 8): 12.5% | Percentage of Animals with Moderate Dermatitis (≥3) (250 mg/mL CBD, Day 8): 6.3% | Percentage of Animals with Moderate Dermatitis (≥2) (250 mg/mL CBD, Day 10): 75% | Percentage of Animals with Moderate Dermatitis (≥3) (250 mg/mL CBD, Day 10): 12.5% | Percentage of Animals with Moderate Dermatitis (≥2) (250 mg/mL CBD, Day 12): 100% | Percentage of Animals with Moderate Dermatitis (≥3) (250 mg/mL CBD, Day 12): 62.5% | Percentage of Animals with Moderate Dermatitis (≥2) (250 mg/mL CBD, Day 14): 93.8% | Percentage of Animals with Moderate Dermatitis (≥3) (250 mg/mL CBD, Day 14): 93.3% | Percentage of Animals with Moderate Dermatitis (≥2) (250 mg/mL CBD, Day 16): 93.7% | Percentage of Animals with Moderate Dermatitis (≥3) (250 mg/mL CBD, Day 16): 75% | Percentage of Animals with Moderate Dermatitis (≥2) (250 mg/mL CBD, Day 18): 83.3% | Percentage of Animals with Moderate Dermatitis (≥3) (250 mg/mL CBD, Day 18): 58.3% | Percentage of Animals with Moderate Dermatitis (≥2) (250 mg/mL CBD, Day 20): 66.7% | Percentage of Animals with Moderate Dermatitis (≥3) (250 mg/mL CBD, Day 20): 25% | Percentage of Animals with Moderate Dermatitis (≥2) (250 mg/mL CBD, Day 22): 33.3% | Percentage of Animals with Moderate Dermatitis (≥3) (250 mg/mL CBD, Day 22): 0% | Percentage of Animals with Moderate Dermatitis (≥2) (250 mg/mL CBD, Day 24): 50% | Percentage of Animals with Moderate Dermatitis (≥3) (250 mg/mL CBD, Day 24): 0% | Percentage of Animals with Moderate Dermatitis (≥2) (250 mg/mL CBD, Day 26): 50% | Percentage of Animals with Moderate Dermatitis (≥3) (250 mg/mL CBD, Day 26): 0% | Percentage of Animals with Moderate Dermatitis (≥2) (250 mg/mL CBD, Day 28): 0% | Percentage of Animals with Moderate Dermatitis (≥3) (250 mg/mL CBD, Day 28): 0% | Dermatitis score (mean) (Day 8): 0.88 | Dermatitis score (mean) (Day 10): 1.63 | Dermatitis score (mean) (Day 12): 1.81 | Dermatitis score (mean) (Day 14): 2.25 | Dermatitis score (mean) (Day 16): 1.92 | Dermatitis score (mean) (Day 18): 1.42 | Dermatitis score (mean) (Day 20): 1.08 | Dermatitis score (mean) (Day 22): 1.17 | Dermatitis score (mean) (Day 24): 1.08 | Dermatitis score (mean) (Day 26): 1.00 | Dermatitis score (mean) (Day 28): 0.92 | Percentage of days with moderate dermatitis compared to the irradiated group (Group 2) (all CBD-treated groups (Groups 4, 5, 6)): significantly lower
